Values of other authors, collected in US20210212947A1, “Docetaxel palmitate liposome and preparation method thereof” (SHANGHAI WEI ER BIOPHARMACEUTICAL TECH CO., LTD., priority 2018, published 2021).

Key:
[1] = times that of paclitaxel

Question: What does the source list for `CC(=O)OC12COC1CC(O)C1(C)C(=O)C(O)C3=C(C)C(OC(=O)C(O)C(NC(=O)OC(C)(C)C)c4ccccc4)CC(O)(C(OC(=O)c4ccccc4)C21)C3(C)C` (stereo not drawn) [Docetaxel, [2aR-(2aα,4β,4aβ,6β,9α(aR*,βS*),11a,12a,12aα,12bα)]-β-[[(1,1dimethylethyl (Oxy)carbonyl]amino]-α-hydroxyphenylpropionic acid [12b-acetoxy-12-benzoyloxy-2a,3,4,4a,5,6,9,10,11,12,12a,12b -Dodecahydro-4,6,11-trihydroxy-4a,8,13,13-tetramethyl-5-oxo-7,11-methylene-1H-cyclodecpentaeno [3,4]Benzo [1,2-b]oxetane-9-yl]ester]?
Answer: solubility in organic solvents (organic solvents such as ethanol, acetone, ether and benzene): soluble; solubility in water (water): insoluble; anti-tumor activity relative to paclitaxel [1]: 1.3-12 times
